The values that follow come from patent EP4810040A2, “INHIBITORS OF APOL1 AND METHODS OF USING SAME” (priority 2020, dated 2022).

pIC50: −log10 of the molar value. Where two headings read alike, the source gives them in different places.

Assay [1] concerns the target T1, APOL1 G1 (Homo sapiens, UniProt O14791, I384M/S342G).
T1 sequence (O14791 28-398 S342G/I384M): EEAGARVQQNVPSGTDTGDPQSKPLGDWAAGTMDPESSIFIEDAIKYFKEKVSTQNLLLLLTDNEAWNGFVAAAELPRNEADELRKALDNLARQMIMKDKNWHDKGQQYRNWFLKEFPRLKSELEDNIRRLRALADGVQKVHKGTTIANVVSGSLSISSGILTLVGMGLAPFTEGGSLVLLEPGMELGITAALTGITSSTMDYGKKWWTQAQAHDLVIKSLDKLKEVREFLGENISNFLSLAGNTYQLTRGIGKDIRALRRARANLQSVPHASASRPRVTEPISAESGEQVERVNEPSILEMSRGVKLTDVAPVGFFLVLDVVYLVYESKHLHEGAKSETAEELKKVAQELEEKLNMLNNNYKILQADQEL
Briefly: MultiTox-Fluor Multiplex Cytotoxicity Assay, tet-inducible APOL1 G1 T-REx-HEK293 cells. It counts as cell-based. More on the design: expressed in transfected cells; host or cells: T-REx HEK293, clone G1 DC3.25 (pAAVS1-Puro-APOL1 G1). Conditions: for pIC50: IP50 = IC50 for cell proliferation; for pIC50 / Multi-Tox Assay Max Activity (%) / Emax: APOL1 variant not given; for IC90: APOL1 variant (G0/G1/G2) of the HEK293 cells not given, read-out: Multi-Tox Assay IC90; for Emax: read-out: Multi-Tox Assay Max Activity (%). In a few lines: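 T-REx-HEK293 cells carrying tet-inducible APOL1 G1 induced with 50 ng/mL tet alongside compound (top 10 µM, 10-point 3-fold, duplicate) for 24 h at 37 °C. MultiTox-Fluor dead/live protease fluorescence ratio read after 30 min; normalized to no-tet (100% viability) and tet-treated (0%) controls, then curve-fitted.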

Assay [2] concerns the target T1, APOL1 G1. Kind of assay: Trypanosoma brucei brucei Lysis Assay Using APOL1 Recombinant Protein (AlamarBlue viability readout). It counts as cell-based. Conditions: IP50 = IC50 for cell proliferation; Trypanosome Assay. The source says: Trypanosoma brucei brucei is a blood stream parasite to which human, gorillas, and baboons are immune due to the presence of the APOL1 protein in their HDL particles. The protein is uptaken by the parasite via the TbHpHb receptor located in its flagellar pocket and is bonded by the Hpr protein contained in the HDL particles which triggers the receptor endocytosis by the parasite.
Following endocytosis, the formed vesicle containing the HDL particle matures from early to late endosome, and subsequently to lysosome. The concomitant pH change in the lumen of the vesicle triggers the insertion of the APOL1 protein into the membrane of the late endosome/lysosome and hereby triggers lysosomal membrane permeabilization and as a further downstream event, trypanosome lysis. Trypanosoma brucei brucei is sensitive to lysis by all three APOL1 variants (G0, G1, and G2).
The Trypanosoma brucei brucei lysis assay is a lysis assay of the parasite using recombinant APOL1 protein variant followed by a fluorescent detection method of viability by the addition of AlamarBlue reagent to the assay well, a general metabolic redox indicator (AlamarBlue assay).
Briefly, the AlamarBlue active compound, resazurin, a blue, water soluble, non-toxic and cell permeable molecule, which can be followed by absorbance, is reduced by various metabolic pathways into resorufin, a red compound which can be followed by either absorbance or fluorescence. The assay allows the calculation of the percent viability (percent of living Trypanosomes remaining in each well) at the end of a lysis relative to the untreated condition by interpolation of fluorescent values (FLU) on a standard curve with a known amount of seeded trypanosome/well.
Trypanosoma brucei brucei (ATCC, Cat. No. PRA-382) • o Lister 427 VSG 221 bloodstream form.
Assay Ready Plates (ARPs) ∘ ARPs comes in two formats: • […] final top concentration with a 2.5 fold dilution down. • 5 mM final top concentration with a 3 fold dilution down. • ▪ Both have a 10 point Dose response. • ▪ 0.1% DMSO final in the Black Assay Plate. • ▪ Compounds are diluted 1000 fold in the Black Assay Plate. • ▪ Each plate is designed for 14 compounds in duplicate. ∘ In the final Black Assay Plate: […]

As to “(2S,6S)-2-chloro-2'-cyclopropyl-6'-methyl-spiro[4,5-dihydrothieno[2,3-c]pyran-7,4'-piperidine] [Compound 211]”, the pIC50 is > 7.30 against APOL1 G1 [1] (Multi-Tox Assay) and 6.30 to 7.30 on APOL1 G1 [2]. In addition, on APOL1 G1 [1] (Multi-Tox Assay), the IC90 is 50 to 500 nM.
Turning to “2'-ethyl-6'-(1-methyltriazol-4-yl)-2-(trifluoromethyl)spiro[4,5-dihydrothieno[2,3-c]pyran-7,4'-piperidine] [Compound 187]”, on APOL1 G1 [1] (Multi-Tox Assay), the pIC50 was > 7.30 and the IC90 was < 50 nM. For the same compound, at APOL1 G1 [2], the pIC50 is 6.30 to 7.30.
As for “(2S)-2-chloro-2'-methyl-6'-(1-methylpyrazol-4-yl)spiro[4,5-dihydrothieno[2,3-c]pyran-7,4'-piperidine]-4-ol [Compound 175]”, the pIC50 against APOL1 G1 [1] (Multi-Tox Assay) and on APOL1 G1 [2] was > 7.30 in each case. For the same compound, the IC90 on APOL1 G1 [1] (Multi-Tox Assay) is < 50 nM.
Take “2-chloro-2'-ethyl-6'-(1-methyltriazol-4-yl)spiro[4,5-dihydrothieno[2,3-c]pyran-7,4'-piperidine] [Compound 186]”: on APOL1 G1 [1] (Multi-Tox Assay), the pIC50 is > 7.30 and the IC90 was 50 to 500 nM. For the same compound, at APOL1 G1 [2], the pIC50 is 6.30 to 7.30.
`COCc1cc([C@@H]2C[C@]3(C[C@H](C)N2)OCCc2cc(Cl)sc23)no1` (racemic) [Compound 106]: the IC90 at APOL1 G1 [1] (HEK293, Multi-Tox Assay) is < 50 nM. For the same compound, the “Multi-Tox Assay Max Activity (%)” value on APOL1 G1 [1] (Multi-Tox Assay) is given as 99.7%.
As to `C[C@H]1C[C@@]2(C[C@@H](c3cn(CCc4ccncn4)nn3)N1)OCC(F)(F)c1cc(Cl)sc12` [Compound 305], the IC90 on APOL1 G1 [1] (HEK293, Multi-Tox Assay) was 50 to 500 nM. Further, the “Multi-Tox Assay Max Activity (%)” value on APOL1 G1 [1] (Multi-Tox Assay) came out at 100.0%.
The like results for `CNc1ncc([C@@H]2C[C@]3(C[C@H](C)N2)OCCc2cc(Cl)sc23)cn1` (racemic) [Compound 60] were, in that order, < 50 nM and 99.7%.
Turning to `C[C@H]1C[C@@]2(C[C@@H](c3cn(C)nn3)N1)OCCc1cc(Cl)sc12` [Compound 1, (2'S, 6'S, 7S)-2-chloro-2'-methyl-6'-(1-methyltriazol-4-yl)spiro[4,5-dihydrothieno[2,3-c]pyran-7,4'-piperidine]], the IC90 on APOL1 G1 [1] (HEK293, Multi-Tox Assay) was < 50 nM. At APOL1 G1 [1] (Multi-Tox Assay), the Emax amounted to 99.3%.
Turning to `CC1CC2(CC(c3ccncc3)N1)OCCc1cc(Cl)sc12` (stereo not drawn) [Compound 30], the concentration for an effect of 90% (IC90) on APOL1 G1 [1] (HEK293, Multi-Tox Assay) was < 50 nM.
On the same count and under the same terms, as for `Cc1cc([C@@H]2C[C@]3(C[C@H](C)N2)OCCc2cc(Cl)sc23)nn1C` (racemic) [Compound 98], the figure is < 50 nM.
Consider `COc1cccc([C@@H]2C[C@]3(C[C@H](C)N2)OCCc2cc(Cl)sc23)c1O` (racemic) [Compound 166], for which the IC90 at APOL1 G1 [1] (HEK293, Multi-Tox Assay) was > 500 nM. The “Multi-Tox Assay Max Activity (%)” value at APOL1 G1 [1] (Multi-Tox Assay) is on record as 96.7%.
On to `Cc1cc2c(s1)C1(CC(C)NC(c3cn(C)nn3)C1)OCC2` (single isomer, unassigned) [Compound 3], for which the IC90 at APOL1 G1 [1] (HEK293, Multi-Tox Assay) was < 50 nM. Besides, the Emax on APOL1 G1 [1] (Multi-Tox Assay) is 99.7%.
As to `C[C@H]1C[C@@]2(C[C@@H](c3cn(CC(F)F)nn3)N1)OC[C@@H](O)c1cc(Cl)sc12` [Compound 283], the concentration for an effect of 90% (IC90) at APOL1 G1 [1] (HEK293, Multi-Tox Assay) lay in the range of 50 to 500 nM. Further, the “Multi-Tox Assay Max Activity (%)” value on APOL1 G1 [1] (Multi-Tox Assay) amounted to 101.0%.
For the compound `COCCOCCn1cc([C@@H]2C[C@]3(C[C@H](C)N2)OC[C@@H](O)c2cc(Cl)sc23)nn1` [Compound 229], at APOL1 G1 [1] (HEK293, Multi-Tox Assay), the IC90 fell in the range of 50 to 500 nM. The “Multi-Tox Assay Max Activity (%)” value at APOL1 G1 [1] (Multi-Tox Assay) was 98.0%.
In the same order, the values of `CCOCCn1cc([C@@H]2C[C@]3(C[C@H](C)N2)OC[C@@H](O)c2cc(Cl)sc23)nn1` [Compound 257] are 50 to 500 nM and 101.0%.
As for `C[C@H]1C[C@@]2(C[C@@H](c3ccc(=O)n(C)c3)N1)OCCc1cc(Cl)sc12` (racemic) [Compound 80], the IC90 on APOL1 G1 [1] (HEK293, Multi-Tox Assay) is < 50 nM. Besides, on APOL1 G1 [1] (Multi-Tox Assay), the Emax stood at 99.7%.
In the case of `C[C@H]1C[C@@]2(C[C@@H](c3cn(CC(N)=O)nn3)N1)OCCc1cc(Cl)sc12` (racemic) [Compound 133], the IC90 on APOL1 G1 [1] (HEK293, Multi-Tox Assay) fell in the range of 50 to 500 nM. Moreover, the “Multi-Tox Assay Max Activity (%)” value on APOL1 G1 [1] (Multi-Tox Assay) is reported as 99.7%.
